This is an account of results in the OligoGym collection.

For the data set, the target named is APOL1. The conditions noted are these: ASO.

“And” between values parts separate entries of the source, which are not always exact repeats. Identical values can stand only once. After the bases stand the sugars from the 5' end (letter, count) and the backbone: PS all phosphorothioate, else s phosphorothioate and o phosphodiester by linkage. Methylation of C is not given here. e = 2'-O-(2-methoxyethyl) (MOE); k = constrained ethyl (cEt); d = 2'-deoxy (DNA)

Turning to TTGATGAGTAGGTGAG (sugars k4 d9 k3, PS), the target mRNA inhibition turned out to be 72% (A431, 0.0625 µM); 81% (A431, 0.25 µM); 85% (A431, 1 µM).

Regarding “GTTATATTTGATCCTC (sugars kkddddkekekddddd, PS)”, under “A431, 2 µM”, the target mRNA inhibition was found to be 80%.

In turn, “AACACATCATTGGGTT (sugars k2 d4 e3 k2 d5, PS)” yielded a target mRNA inhibition (A431, 2 µM) of 43%.

Regarding “GTTATGAAATTATTGG (sugars kkddddkekekddddd, PS)”, the target mRNA inhibition (A431, 2 µM) was 83%.

Regarding “AATTATGGAATTGCAG (sugars kdddddkekekddddd, PS)”, the target mRNA inhibition (A431, 2 µM) stood at 52%.

Take “GTATTTCTTGATGTGG (sugars k3 d4 k3 e1 d5, PS)”: the target mRNA inhibition (A431, 2 µM) came to 98%.

Regarding “CACTTTATACCAGTGT (sugars kkddddkekekddddd, PS)”, the target mRNA inhibition (A431, 2 µM) was 14%.

Take GAATTATGGAATTGCA (sugars k4 d9 k3, PS): the target mRNA inhibition reads like this: (A431, 0.0625 µM) 59%; (A431, 0.25 µM) 82%; (A431, 1 µM) 92%.

For the setting “A431, 2 µM”, “TCTATTAGAGGGCTAG (sugars kkddddkekekddddd, PS)” showed a target mRNA inhibition of 52%.

In the case of “ATTCTATTAGAGGGCT (sugars kkddddkekekddddd, PS)”, for the setting “A431, 2 µM”, the target mRNA inhibition stood at 46%.

For the sequence “GAGTATTGTTTTTGTG (sugars k3 d4 k3 e1 d5, PS)”, the target mRNA inhibition (A431, 2 µM) came out at 88%.

“TCTATTAGAGGGCTAG (sugars kkddddkdkdkddddd, PS)” gave a target mRNA inhibition (A431, 2 µM) of 68%.

On to “GGAATTATGGAATTGC (sugars kkkddddkdkdkdddd, PS)”, for which the target mRNA inhibition (A431, 2 µM) turned out to be 76%.

“ATCAGATGGGTACTTC (sugars kkddddkdkdkddddd, PS)” displayed a target mRNA inhibition (A431, 2 µM) of 78%.

With “ATTCAGAATTTCCACT (sugars k3 d4 k3 e1 d5, PS)”, the target mRNA inhibition (A431, 2 µM) worked out at 89%.

Consider “TGGTTCAAAAGCAGCA (sugars kkddddekekeddddd, PS)”, for which the target mRNA inhibition (A431, 2 µM) is 82%.

In the case of “TTCAGAATTTCCACTA (sugars kdddddkekekddddd, PS)”, the target mRNA inhibition (A431, 2 µM) stood at 87%.

For the sequence “GCTTTAAACTCAGGTG (sugars kkddddekekeddddd, PS)”, the target mRNA inhibition runs as follows: (A431, 0.0156 µM) 14%; (A431, 0.0625 µM) 41%; (A431, 0.25 µM) 62%; (A431, 1 µM) 86%; (A431, 2 µM) 92%.

Consider “GTTTTGTAAGTGCAAC (sugars kkddddekekeddddd, PS)”, for which, where the note is “A431, 2 µM”, the target mRNA inhibition worked out at 86%.

As to “TATTTCTTGATGTGGT (sugars k3 d4 k3 e1 d5, PS)”, the target mRNA inhibition is 45% (A431, 0.0156 µM); 78% (A431, 0.0625 µM); 95% (A431, 0.25 µM); 98% (A431, 1 µM); 99% (A431, 2 µM).

Where the note is “A431, 2 µM”, “TTATGAAATTATTGGT (sugars k2 d4 e4 k2 d4, PS)” registered a target mRNA inhibition of 35%.

In the case of TCAACACATCATTGGG (sugars k4 d9 k3, PS), the target mRNA inhibition by setting is: (A431, 0.0625 µM) 38%; (A431, 0.25 µM) 73%; (A431, 1 µM) 90%.

Regarding GGAAATGAACGCAATG (sugars k4 d9 k3, PS), the target mRNA inhibition is 37% (A431, 0.0625 µM); 71% (A431, 0.25 µM); 87% (A431, 1 µM).

As for “ACACATCATTGGGTTA (sugars kkddddkdkdkddddd, PS)”, the target mRNA inhibition (A431, 2 µM) turned out to be 57%.

As for “CACATCATTGGGTTAT (sugars k2 d4 e4 k2 d4, PS)”, the target mRNA inhibition (A431, 2 µM) stood at 54%.

For “TTCTATTAGAGGGCTA (sugars kkddddkdkdkddddd, PS)”, the target mRNA inhibition (A431, 2 µM) worked out at 87%.

In the case of GCTGGGTCTGTAGTGG (sugars k4 d9 k3, PS), the target mRNA inhibition runs as follows: (A431, 0.0625 µM) 49%; (A431, 0.25 µM) 70%; (A431, 1 µM) 82%.

Take “TGTTATATTTGATCCT (sugars kkddddkdkdkddddd, PS)”: under “A431, 2 µM”, the target mRNA inhibition is 86%.

In turn, “ATTCTCATGGTACAGG (sugars kkkddddkekekdddd, PS)” returned a target mRNA inhibition (A431, 2 µM) of 70%.

Regarding “AAGCTTTAAACTCAGG (sugars kkddddekekeddddd, PS)”, the target mRNA inhibition turned out to be 20% (A431, 0.0156 µM); 58% (A431, 0.0625 µM); 84% (A431, 0.25 µM); 92% (A431, 1 µM); 95% (A431, 2 µM).

Consider AGATGGGTACTTCTGT (sugars k4 d9 k3, PS), for which the target mRNA inhibition is 85% (A431, 0.0625 µM); 88% (A431, 0.25 µM); 93% (A431, 1 µM).

In the case of “AAGTATTGCCAGCTAA (sugars kkddddekekeddddd, PS)”, the target mRNA inhibition (A431, 2 µM) amounted to 49%.

As to “CACATCATTGGGTTAT (sugars k3 d4 k3 e1 d5, PS)”, under “A431, 2 µM”, the target mRNA inhibition was 78%.

Turning to “TGGGAATTATGGAATT (sugars kkddddkekekddddd, PS)”, the target mRNA inhibition (A431, 2 µM) turned out to be 87%.

Consider ATCCTGGGCGGCGACA (sugars k4 d9 k3, PS), for which the target mRNA inhibition runs as follows: (A431, 0.0625 µM) 35% and 28%; (A431, 0.25 µM) 62% and 50%; (A431, 1 µM) 82% and 72%.

In turn, “TTTGTAAGTGCAACCA (sugars kkkddddkdkdkdddd, PS)” displayed a target mRNA inhibition (A431, 2 µM) of 71%.

Consider “GAATTATGGAATTGCA (sugars kkddddkekekddddd, PS)”, for which the target mRNA inhibition (A431, 2 µM) was found to be 51%.

The sequence TTCATGATCATTTGTC (sugars k4 d9 k3, PS) registered a target mRNA inhibition (A431, 0.0625 µM) of 47%; a target mRNA inhibition (A431, 0.25 µM) of 68%; a target mRNA inhibition (A431, 1 µM) of 81%.

The sequence “TGTTATATTTGATCCT (sugars kkkddddkdkdkdddd, PS)” yielded a target mRNA inhibition (A431, 2 µM) of 66%.

With “AGCTTTAAACTCAGGT (sugars kkddddkdkdkddddd, PS)”, under “A431, 2 µM”, the target mRNA inhibition is 86%.

In turn, “TTGTAAGTGCAACCAA (sugars kkddddekekeddddd, PS)” displayed a target mRNA inhibition (A431, 2 µM) of 87%.

Take GGTTGTCCAGAGCTTT (sugars k4 d9 k3, PS): the target mRNA inhibition is, setting by setting: (A431, 0.0625 µM) 100%; (A431, 0.25 µM) 84%; (A431, 1 µM) 91%.

In turn, TTGGGTCAAAAGCGAT (sugars k4 d9 k3, PS) registered a target mRNA inhibition (A431, 0.0625 µM) of 56%; a target mRNA inhibition (A431, 0.25 µM) of 86%; a target mRNA inhibition (A431, 1 µM) of 93%.

For the sequence AAAGAACTCAAGTCAG (sugars k4 d9 k3, PS), the target mRNA inhibition is, setting by setting: (A431, 0.25 µM) 61% and 82%; (A431, 1 µM) 83% and 90%.

For the setting “A431, 2 µM”, “CTAATTTTCTGACTGT (sugars kkddddkekekkdddd, PS)” came in with a target mRNA inhibition of 71%.

Take “ATCAGATGGGTACTTC (sugars kkdddddkekeddddd, PS)”: the target mRNA inhibition (A431, 2 µM) was found to be 83%.

With “TATTTCTTGATGTGGT (sugars kkddddkdkdkddddd, PS)”, the target mRNA inhibition is, setting by setting: (A431, 0.0156 µM) 40%; (A431, 0.0625 µM) 71%; (A431, 0.25 µM) 91%; (A431, 1 µM) 96%; (A431, 2 µM) 97%.

Regarding CAGTCAGCAGGAGTAG (sugars k4 d9 k3, PS), the target mRNA inhibition by setting is: (A431, 0.0625 µM) 30%; (A431, 0.25 µM) 54%; (A431, 1 µM) 65%.

As to TCCGTTCCAGGCCTCA (sugars k4 d9 k3, PS), the target mRNA inhibition reads like this: (A431, 0.0625 µM) 29%; (A431, 0.25 µM) 44%; (A431, 1 µM) 58%.

In turn, “GCTTTAAACTCAGGTG (sugars kkkddddkekeddddd, PS)” yielded a target mRNA inhibition (A431, 2 µM) of 82%.

In the case of GTTTTATGGAGTCATT (sugars k4 d9 k3, PS), the target mRNA inhibition was 51% and 34% (A431, 0.0625 µM); 78% and 70% (A431, 0.25 µM); 92% and 84% (A431, 1 µM).

GAGTCATTAGTGCTAT (sugars k4 d9 k3, PS) displayed a target mRNA inhibition (A431, 0.0625 µM) of 53%; a target mRNA inhibition (A431, 0.25 µM) of 77%; a target mRNA inhibition (A431, 1 µM) of 85%.

For the sequence CAGATGTGTTTAGGCA (sugars k4 d9 k3, PS), the target mRNA inhibition is, setting by setting: (A431, 0.0625 µM) 78%; (A431, 0.25 µM) 93%; (A431, 1 µM) 96%.

AGGGAAATGAACGCAA (sugars k4 d9 k3, PS): the target mRNA inhibition reads like this: (A431, 0.0625 µM) 38%; (A431, 0.25 µM) 65%; (A431, 1 µM) 85%.

With “CTGAAGATTGGCTCTG (sugars kkddddkekekddddd, PS)”, for the setting “A431, 2 µM”, the target mRNA inhibition was determined as 45%.

With CCTCATTGCAAATCCT (sugars k4 d9 k3, PS), the target mRNA inhibition is 54% (A431, 0.0625 µM); 84% (A431, 0.25 µM); 96% (A431, 1 µM).

For “TTCTCATGGTACAGGA (sugars kkddddekekeddddd, PS)”, the target mRNA inhibition (A431, 2 µM) turned out to be 79%.

As to ACTTCTGTTAGATACA (sugars k4 d9 k3, PS), the target mRNA inhibition by setting is: (A431, 0.0625 µM) 38%; (A431, 0.25 µM) 73%; (A431, 1 µM) 90%.

Regarding “TTATACCAGTGTCTTC (sugars kdddddkekekddddd, PS)”, under “A431, 2 µM”, the target mRNA inhibition was 82%.

As to “GAAGATTGGCTCTGGC (sugars kddddkekekeddddd, PS)”, the target mRNA inhibition (A431, 2 µM) is 21%.

As for TCCTGGGCGGCGACAA (sugars k4 d9 k3, PS), the target mRNA inhibition by setting is: (A431, 0.0625 µM) 46%; (A431, 0.25 µM) 74%; (A431, 1 µM) 85%.

Under “A431, 2 µM”, “CAACACATCATTGGGT (sugars kkddddekekeddddd, PS)” came in with a target mRNA inhibition of 80%.

As for “TTCTCATGGTACAGGA (sugars k3 d4 k3 e1 d5, PS)”, where the note is “A431, 2 µM”, the target mRNA inhibition worked out at 44%.

Consider “TTTGTAAGTGCAACCA (sugars k3 d5 k3 d5, PS)”, for which, for the setting “A431, 2 µM”, the target mRNA inhibition worked out at 98%.

On to “TCCGTCAATATATTCT (sugars kkkddddkekekdddd, PS)”, for which the target mRNA inhibition was 30% (A431, 0.0156 µM); 50% (A431, 0.04 µM); 57% (A431, 0.0625 µM); 84% (A431, 0.25 µM); 94% (A431, 1 µM); 95% (A431, 2 µM).

“GGGAATTATGGAATTG (sugars k2 d4 e3 k2 d5, PS)” gave a target mRNA inhibition (A431, 2 µM) of 86%.

Where the note is “A431, 2 µM”, “GGGTTATGAAATTATT (sugars kkddddekekeddddd, PS)” gave a target mRNA inhibition of 88%.
